Reference: EP1734031A1, “NOVEL 2-(ALPHA-N-PENTANONYL)BENZOETES, THEIR PREPARATION AND USE” (priority 2004, dated 2005)
Marks after values point to notes of the source that are not given here.

Experiments:
[1] = test system: model rats of middle cerebral artery thrombosis (MCAT); experiment: Effects on cerebral infarct area of MCAT rats (TTC staining); format: in vivo, SD rats; conditions: for Cerebral infarct tissue weight/total brain weight: 24 hours after operation; for Inhibition (cerebral infarct): vs. model group; for cerebral infarct compared with the model group (in words): 50 mg/kg, P<0.05
[2] = Stability to light (purity by HPLC); conditions: light test, 10 days
Method: Tests were conducted for 10 days in accordance with the testing method as described in Pharmacopoeia of P.R. China, 2000 ed., appendix XIX C of part two, "Guideline for testing the stability of medicament: method for testing stability to light". The purity was determined in accordance with the test described in Pharmacopoeia of P.R. China, 2000 ed., appendix VD of part two, by using HPLC method, C18 column, mobile phase of acetonitrile:0.02M sodium dihydrogen phosphate = 40:60, detecting wavelength of 230 nm, flow rate of 1 ml/min.

[3] = test system: model rats of middle cerebral artery thrombosis (MCAT); experiment: Effects on neural symptoms of MCAT rats (behavioral score); format: in vivo, SD rats; conditions: for Scores 6 hours: 6 hours after operation; for Scores 6 hours / Scores 24 hours: full mark 4; for Scores 24 hours: 24 hours after operation
[4] = test system: ICR mice; conditions: mouse, in vivo, po, 168 h
[5] = Thermal stability (purity by HPLC); conditions: 10 days at 60°C
Method: Tests were conducted for 10 days at 60°C in accordance with the testing method as described in Pharmacopoeia of P.R. China, 2000 ed., appendix XIX C of part two, "Guideline for testing the stability of medicament: method for testing thermal stability". The purity was determined in accordance with the test described in Pharmacopoeia of P.R. China, 2000 ed., appendix VD of part two, by using HPLC method, C18 column, mobile phase of acetonitrile:0.02M sodium dihydrogen phosphate = 40:60, detecting wavelength of 230 nm, flow rate of 1 ml/min.

[6] = test system: thrombosis of artery-vein bypass in rats; experiment: Effects on thrombosis of artery-vein bypass in rats; format: in vivo, SD rats; conditions: for Dry-weight of thrombus / Wet-weight of thrombus: once per day for 3 days; for Inhibition (dry-weight of thrombus) / Inhibition (wet-weight of thrombus): vs. thrombus model group
[7] = in vivo; conditions: both, ICR, mouse, po
[8] = Stability to humidity (high humidity test, purity by HPLC); format: physicochemical; conditions: 10 days
[9] = 50 mg/kg by gavage, vs. model group
[10] = 100 mg/kg by gavage, vs. model group
[11] = 200 mg/kg by gavage, vs. model group

SMILES	Cerebral infarct tissue weight/total brain weight ([1]; 50 mg/kg by gavage) [%]	Inhibition (cerebral infarct) ([1]; 50 mg/kg by gavage) [%]	cerebral infarct compared with the model group (in words) [1]	Cerebral infarct tissue weight/total brain weight ([1]; 100 mg/kg by gavage) [%]	Inhibition (cerebral infarct) ([1]; 100 mg/kg by gavage) [%]	Cerebral infarct tissue weight/total brain weight ([1]; 200 mg/kg by gavage) [%]	Inhibition (cerebral infarct) ([1]; 200 mg/kg by gavage) [%]	decomposed product (stability to light) [2]	Scores 6 hours ([3]; 50 mg/kg by gavage)	Scores 24 hours ([3]; 50 mg/kg by gavage)	% inhibition at hour 24 [3, 9] [%]	Scores 6 hours ([3]; 100 mg/kg by gavage)	Scores 24 hours ([3]; 100 mg/kg by gavage)	% inhibition at hour 24 [3, 10] [%]	Scores 6 hours ([3]; 200 mg/kg by gavage)	Scores 24 hours ([3]; 200 mg/kg by gavage)	% inhibition at hour 24 [3, 11] [%]	LD50 value [4] [mg/kg]	decomposed product (thermal stability) [5]	Dry-weight of thrombus ([6]; 50 mg/kg by gavage) [mg]	other results
CCCCC(=O)c1ccccc1C(=O)O [Calcium 2-(α-n-pentanonyl)benzoate, calcium 2-(α-n-pentanonyl)benzoate]	5.01±1.79	32.39	significantly reduced	5.23±2.04	34.13	4.65±2.13	38.90	no decomposed product	3.18±0.60	2.73±0.65**^,s	25.00	3.40±0.52	2.90±0.57	22.25	3.27±0.79	2.45±0.82	34.32	2683.8	no decomposed product	40.2 ± 18.0	alleviation on neural symptoms at 24 hours after the operation (in words) ([3]; 50 mg/kg, vs. model group, P<0.01 or P<0.05): significantly alleviation; Wet-weight of thrombus ([6]; 50 mg/kg by gavage): 199.8 ± 30.4 mg; Inhibition (dry-weight of thrombus) ([6]; 50 mg/kg): 21.64%; Inhibition (wet-weight of thrombus) ([6]; 50 mg/kg): 22.92%; Dry-weight of thrombus ([6]; 100 mg/kg by gavage): 34.2 ± 13.1 mg; Wet-weight of thrombus ([6]; 100 mg/kg by gavage): 189.8 ± 52.3 mg; Inhibition (dry-weight of thrombus) ([6]; 100 mg/kg): 33.33%; Inhibition (wet-weight of thrombus) ([6]; 100 mg/kg): 26.77%; Dry-weight of thrombus ([6]; 200 mg/kg by gavage): 30.4 ± 13.9 mg; Wet-weight of thrombus ([6]; 200 mg/kg by gavage): 163.2 ± 64.4 mg; Inhibition (dry-weight of thrombus) ([6]; 200 mg/kg): 40.74%; Inhibition (wet-weight of thrombus) ([6]; 200 mg/kg): 37.04%
CCCCC(O)c1ccccc1C(=O)[O-].[K+] (stereo not drawn) [Potassium 2-(α-hydroxypentyl)benzoate]	6.16±2.46	16.87	–	5.73±2.20	27.83	5.37±2.00	29.43	–	3.50±0.71	3.30±0.48	9.34	3.55±0.52	3.00±0.89	19.57	3.45±0.52	2.73±0.79	26.81	–	–	–	LD50 at 7 days [7]: 1230 mg/kg; decomposition after absorbing moisture [8]: highly decomposed
CCCCC(=O)c1ccccc1C(=O)O.CCCCC(=O)c1ccccc1C(=O)O.c1ccc(CNCCNCc2ccccc2)cc1 [2-(α-n-pentanonyl)benzoate of N,N'-dibenzylethylene diamine]	5.14±2.17	30.63	significantly reduced	4.68±1.69	41.06	4.60±1.26	39.55	no decomposed product	3.45±0.69	2.91±0.70	–	3.45±0.52	2.36±0.67	–	3.27±0.79	2.55±0.52	–	3078.8	no decomposed product	39.0 ± 10.8	Wet-weight of thrombus ([6]; 50 mg/kg by gavage): 207.1 ± 45.3 mg; Inhibition (dry-weight of thrombus) ([6]; 50 mg/kg): 23.98%; Inhibition (wet-weight of thrombus) ([6]; 50 mg/kg): 20.10%; Dry-weight of thrombus ([6]; 100 mg/kg by gavage): 29.9 ± 13.6 mg; Wet-weight of thrombus ([6]; 100 mg/kg by gavage): 157.9 ± 67.9 mg; Inhibition (dry-weight of thrombus) ([6]; 100 mg/kg): 41.72%; Inhibition (wet-weight of thrombus) ([6]; 100 mg/kg): 39.08%; Dry-weight of thrombus ([6]; 200 mg/kg by gavage): 32.3 ± 12.5 mg; Wet-weight of thrombus ([6]; 200 mg/kg by gavage): 191.7 ± 34.8 mg; Inhibition (dry-weight of thrombus) ([6]; 200 mg/kg): 37.04%; Inhibition (wet-weight of thrombus) ([6]; 200 mg/kg): 26.04%
